One experiment deals with OSA. The experiment in a line: cells.
The next experiment has as its system U2OS. The experiment in a line: cells. As to conditions: Homo sapiens, U2OS.
In another experiment the test system is RD. The experiment in a line: cells. As to conditions: Homo sapiens, RD.
For another experiment, the target named is Brag2Sec7-PH (Homo sapiens, UniProt Q6DN90). Nature of the experiment: GEF assay, […]GTPgammaS binding to Arf1, filter trapping. Type of experiment: biochemical. In general terms: GTPγS resists hydrolysis and so accumulates on activated G proteins.
The next experiment deals with ASAP1 (full-length) (Mus musculus, UniProt Q9QWY8). The experiment in a line: GAP assay, conversion of Arf1-GTP to Arf1-GDP. Type of experiment: biochemical.
The target in experiment [1] is T1, ASAP1PZA (Mus musculus, UniProt Q9QWY8).
T1 sequence (Q9QWY8 325-724 limits assumed): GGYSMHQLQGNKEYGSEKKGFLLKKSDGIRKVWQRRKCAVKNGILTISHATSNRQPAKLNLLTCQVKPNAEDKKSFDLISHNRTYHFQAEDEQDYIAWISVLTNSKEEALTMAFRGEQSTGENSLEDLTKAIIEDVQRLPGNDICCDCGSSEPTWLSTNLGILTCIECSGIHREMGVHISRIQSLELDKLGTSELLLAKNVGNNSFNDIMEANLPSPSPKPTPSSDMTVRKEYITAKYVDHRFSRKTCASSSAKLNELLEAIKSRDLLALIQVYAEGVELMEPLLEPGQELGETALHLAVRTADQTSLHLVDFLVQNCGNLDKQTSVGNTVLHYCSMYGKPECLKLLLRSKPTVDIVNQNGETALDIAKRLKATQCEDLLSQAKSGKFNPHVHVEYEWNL
Nature of the experiment: GAP assay, conversion of Arf1-GTP to Arf1-GDP. Type of experiment: biochemical.

The next experiment deals with myrArf1. As to conditions: NAV-2729 partitioned in LUVs; PBS, room temperature; not myristoylated.
The test system of the next experiment is C2C12. The experiment in a line: cells. As to conditions: Mus musculus.
For a further experiment, the system named is NIH3T3. The experiment in a line: cells. As to conditions: Mus musculus.
The next experiment deals with SMS-CTR. Nature of the experiment: cells.
In the next experiment the test system is HeLa. Nature of the experiment: cells. As to conditions: Homo sapiens, HeLa, read-out: EC50 for cell killing (μM) / SecinH3.
Another experiment deals with MCF 10A. Nature of the experiment: cells. As to conditions: Homo sapiens, MCF-10A, read-out: EC50 for cell killing (μM) / SecinH3.
Experiment [2] has as its target T1, ASAP1PZA. The experiment in a line: thermal shift, soluble fraction by SDS-PAGE. It counts as binding. As to conditions: 10 μM protein, no membrane.
Where [3] appears, read: read-out: EC50 for cell killing (μM) / Bragsin2.
[4] abbreviates: read-out: EC50 for cell killing (μM) / NAV-2729.
Setting [5] is: read-out: EC50 for cell killing (μM) / SecinH3.

Molecules are shown by their SMILES. Where two headings read alike, the source gives them in different places.

Brag2Sec7-PH, sequence (Q6DN90 512-885): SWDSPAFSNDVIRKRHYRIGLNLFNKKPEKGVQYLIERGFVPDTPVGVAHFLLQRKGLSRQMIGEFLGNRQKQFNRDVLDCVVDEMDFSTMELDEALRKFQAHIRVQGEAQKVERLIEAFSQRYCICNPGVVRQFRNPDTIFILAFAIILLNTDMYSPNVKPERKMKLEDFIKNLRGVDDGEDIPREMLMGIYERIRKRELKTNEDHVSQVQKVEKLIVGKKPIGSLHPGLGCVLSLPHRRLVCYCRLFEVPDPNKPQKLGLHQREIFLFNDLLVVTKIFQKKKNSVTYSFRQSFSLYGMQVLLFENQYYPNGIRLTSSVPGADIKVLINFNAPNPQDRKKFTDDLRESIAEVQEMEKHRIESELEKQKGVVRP
ASAP1 (full-length), sequence (Q9QWY8 whole entry): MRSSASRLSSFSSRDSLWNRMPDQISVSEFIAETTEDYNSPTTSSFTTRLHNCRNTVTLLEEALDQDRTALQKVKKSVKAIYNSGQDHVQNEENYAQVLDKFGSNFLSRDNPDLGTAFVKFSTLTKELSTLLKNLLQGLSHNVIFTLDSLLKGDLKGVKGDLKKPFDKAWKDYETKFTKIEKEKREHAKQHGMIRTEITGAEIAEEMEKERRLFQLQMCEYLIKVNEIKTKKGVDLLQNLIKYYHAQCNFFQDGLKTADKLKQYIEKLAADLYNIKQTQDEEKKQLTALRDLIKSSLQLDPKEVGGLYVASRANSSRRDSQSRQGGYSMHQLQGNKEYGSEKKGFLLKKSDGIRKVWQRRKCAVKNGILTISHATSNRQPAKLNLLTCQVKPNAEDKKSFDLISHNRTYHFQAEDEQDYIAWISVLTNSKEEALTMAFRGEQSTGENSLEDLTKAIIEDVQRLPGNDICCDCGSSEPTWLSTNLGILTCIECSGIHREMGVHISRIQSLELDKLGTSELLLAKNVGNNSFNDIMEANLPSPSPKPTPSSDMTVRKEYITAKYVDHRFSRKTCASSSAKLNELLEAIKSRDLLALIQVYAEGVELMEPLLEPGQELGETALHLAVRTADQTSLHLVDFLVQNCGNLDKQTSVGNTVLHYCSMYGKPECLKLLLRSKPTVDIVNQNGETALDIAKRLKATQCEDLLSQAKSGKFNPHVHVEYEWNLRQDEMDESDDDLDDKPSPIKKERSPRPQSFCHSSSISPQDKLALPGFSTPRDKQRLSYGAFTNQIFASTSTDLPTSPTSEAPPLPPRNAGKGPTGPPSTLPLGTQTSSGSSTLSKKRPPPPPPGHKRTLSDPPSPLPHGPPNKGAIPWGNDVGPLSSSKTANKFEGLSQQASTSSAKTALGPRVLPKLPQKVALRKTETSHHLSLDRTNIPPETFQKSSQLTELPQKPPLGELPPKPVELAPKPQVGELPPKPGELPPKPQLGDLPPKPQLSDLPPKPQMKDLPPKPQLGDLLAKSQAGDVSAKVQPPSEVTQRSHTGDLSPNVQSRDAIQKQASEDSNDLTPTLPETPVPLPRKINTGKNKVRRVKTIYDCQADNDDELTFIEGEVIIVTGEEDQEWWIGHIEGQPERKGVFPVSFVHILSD

As to `COc1ccc2oc(C(F)(F)F)cc(=O)c2c1[N+](=O)[O-]` [Bragsin2], the EC50 in the experiment with OSA (setting [3]) and with U2OS (setting [3]) was above 50 µM each time.
Take `C[C@H]1CCC/C=C/[C@@H]2C[C@H](O)C[C@H]2[C@H](O)/C=C/C(=O)O1` [Brefeldin A]: the EC50 with RD (read-out: EC50 for cell killing (μM) / Brefeldin A) was found to be 0.006 ± 0.002 µM.
Usually IC50 stands for the point on the concentration scale where inhibition reaches its midpoint. High values mean weaker potency, low ones greater potency. As a reminder, the Kd is the constant that tells how readily two partners part at equilibrium. For `O=c1cc(-c2ccc([N+](=O)[O-])cc2)[nH]c2c(-c3ccc(Cl)cc3)c(Cc3ccccc3)nn12` [NAV-2729], the IC50 on Brag2Sec7-PH was found to be 7.1 ± 2.5 µM; at ASAP1 (full-length), 12.2 ± 1.4 µM; against ASAP1PZA [1] it was 4.6 ± 0.9 µM. For the same compound, the Kd on myrArf1 was above 50 µM. Besides, the EC50 in the experiment on C2C12 (C2C12, read-out: EC50 for cell killing (μM) / NAV-2729) stood at 11 µM; in the experiment on NIH3T3 (NIH3T3, read-out: EC50 for cell killing (μM) / NAV-2729), 11 µM; in the experiment with RD (setting [4]) it was 8 µM; in the experiment on SMS-CTR (setting [4]), 11 µM.
Take `COc1nc(-c2ccc3c(c2)OCO3)n(-c2ccc(NC(=O)CSc3ccccc3)cc2)n1` [SecinH3]: the EC50 was above 50 µM in the experiment with C2C12 (C2C12, read-out: EC50 for cell killing (μM) / SecinH3); above 50 µM in the experiment with HeLa; above 50 µM in the experiment on MCF 10A; above 50 µM in the experiment on NIH3T3 (NIH3T3, read-out: EC50 for cell killing (μM) / SecinH3); above 50 µM in the experiment with OSA (setting [5]); above 50 µM with RD (setting [5]). Moreover, the EC50 in the experiment with SMS-CTR (setting [5]) and with U2OS (setting [5]) was above 50 µM throughout.
Take `CCCCCCCC(=O)OC[C@H](COP(=O)(O)O[C@@H]1[C@H](O)[C@H](O)[C@@H](OP(=O)(O)O)[C@H](OP(=O)(O)O)[C@H]1O)OC(=O)CCCCCCC` [diC8-PIP2]: at ASAP1PZA [2], the “thermal shift at 200 μM” value is reported as ~ 6 degree.

The values are drawn from paper PMC10023970 (The Journal of Biological Chemistry, 2023).
